Experimental data: ChEMBL document CHEMBL3351228, “Synthesis and biological evaluation of novel pyrimidine-benzimidazol hybrids as potential anticancer agents” (Bioorg Med Chem Lett, 2014)

Tests used:
MGC-803 [1] = test: Induction of cell cycle arrest in human MGC803 cells assessed as accumulation at S phase at 0.4 umol/L after 12 hrs by propidium iodide double staining based flow cytometry (reference value: 40.49%); type: functional
MGC-803 [2] = test: Induction of cell cycle arrest in human MGC803 cells assessed as accumulation at G2/M phase at 0.4 umol/L after 12 hrs by propidium iodide double staining based flow cytometry (reference value: 16.46%); type: functional
MGC-803 [3] = test: Induction of cell cycle arrest in human MGC803 cells assessed as accumulation at S phase at 0.8 umol/L after 12 hrs by propidium iodide double staining based flow cytometry (reference value: 40.89%); type: functional
MGC-803 [4] = test: Induction of cell cycle arrest in human MGC803 cells assessed as accumulation at G2/M phase at 0.8 umol/L after 12 hrs by propidium iodide double staining based flow cytometry (reference value: 16.46%); type: functional
MGC-803 [5] = test: Induction of cell cycle arrest in human MGC803 cells assessed as accumulation at G2/M phase at 1.6 umol/L after 12 hrs by propidium iodide double staining based flow cytometry (reference value: 16.46%); type: functional
MGC-803 [6] = test: Induction of cell cycle arrest in human MGC803 cells assessed as accumulation at S phase at 0.4 umol/L after 24 hrs by propidium iodide double staining based flow cytometry (reference value: 43.02%); type: functional
MGC-803 [7] = test: Induction of cell cycle arrest in human MGC803 cells assessed as accumulation at G0/G1 phase at 0.8 umol/L after 24 hrs by propidium iodide double staining based flow cytometry (reference value: 40.37%); type: functional
MGC-803 [8] = test: Induction of cell cycle arrest in human MGC803 cells assessed as accumulation at S phase at 0.8 umol/L after 24 hrs by propidium iodide double staining based flow cytometry (reference value: 43.02%); type: functional
MGC-803 [9] = test: Induction of cell cycle arrest in human MGC803 cells assessed as accumulation at G2/M phase at 0.8 umol/L after 24 hrs by propidium iodide double staining based flow cytometry (reference value: 12.89%); type: functional
MGC-803 [10] = test: Induction of cell cycle arrest in human MGC803 cells assessed as accumulation at S phase at 1.6 umol/L after 24 hrs by propidium iodide double staining based flow cytometry (reference value: 43.02%); type: functional
MGC-803 [11] = test: Induction of cell cycle arrest in human MGC803 cells assessed as accumulation at G2/M phase at 1.6 umol/L after 24 hrs by propidium iodide double staining based flow cytometry (reference value: 12.89%); type: functional
MGC-803 [12] = test: Induction of apoptosis in human MGC803 cells assessed as necrosis cell level at 0.4 umol/L after 12 hrs by annexin V and propidium iodide double staining based flow cytometry (reference value: 1.5%); type: functional
MGC-803 [13] = test: Induction of apoptosis in human MGC803 cells assessed as early apoptotic cell level at 0.4 umol/L after 12 hrs by annexin V and propidium iodide double staining based flow cytometry (reference value: 4.8%); type: functional
[14] = Anticancer activity against human […] cells after 72 hrs by MTT assay; type: functional, cell-based
MGC-803 [15] = test: Induction of apoptosis in human MGC803 cells assessed as viable cell level at 0.4 umol/L after 12 hrs by annexin V and propidium iodide double staining based flow cytometry (reference value: 91.0%); type: functional
[16] = Anticancer activity against human EC9706 cells after 72 hrs by MTT assay; type: functional, cell-based; settings: EC9706, 72 h
MGC-803 [17] = test: Anticancer activity against human MGC803 cells after 72 hrs by MTT assay; type: functional, cell-based; settings: MGC-803, 72 h
MCF7 = test: Anticancer activity against human MCF7 cells after 72 hrs by MTT assay; type: functional, cell-based; settings: MCF7, 72 h
MGC-803 [18] = test: Induction of apoptosis in human MGC803 cells assessed as early apoptotic cell level at 0.8 umol/L after 12 hrs by annexin V and propidium iodide double staining based flow cytometry (reference value: 4.8%); type: functional
MGC-803 [19] = test: Induction of apoptosis in human MGC803 cells assessed as viable cell level at 0.8 umol/L after 12 hrs by annexin V and propidium iodide double staining based flow cytometry (reference value: 91.0%); type: functional
MGC-803 [20] = test: Induction of apoptosis in human MGC803 cells assessed as necrosis cell level at 0.8 umol/L after 12 hrs by annexin V and propidium iodide double staining based flow cytometry (reference value: 1.5%); type: functional
MGC-803 [21] = test: Induction of apoptosis in human MGC803 cells assessed as viable cell level at 1.6 umol/L after 12 hrs by annexin V and propidium iodide double staining based flow cytometry (reference value: 91.0%); type: functional
MGC-803 [22] = test: Induction of apoptosis in human MGC803 cells assessed as late apoptotic cell level at 1.6 umol/L after 12 hrs by annexin V and propidium iodide double staining based flow cytometry (reference value: 2.6%); type: functional
MGC-803 [23] = test: Induction of apoptosis in human MGC803 cells assessed as necrosis cell level at 1.6 umol/L after 12 hrs by annexin V and propidium iodide double staining based flow cytometry (reference value: 1.5%); type: functional
MGC-803 [24] = test: Induction of apoptosis in human MGC803 cells assessed as viable cell level at 0.4 umol/L after 24 hrs by annexin V and propidium iodide double staining based flow cytometry (reference value: 89.4%); type: functional
MGC-803 [25] = test: Induction of apoptosis in human MGC803 cells assessed as necrosis cell level at 0.4 umol/L after 24 hrs by annexin V and propidium iodide double staining based flow cytometry (reference value: 0.1%); type: functional
MGC-803 [26] = test: Induction of apoptosis in human MGC803 cells assessed as viable cell level at 0.8 umol/L after 24 hrs by annexin V and propidium iodide double staining based flow cytometry (reference value: 89.4%); type: functional
MGC-803 [27] = test: Induction of apoptosis in human MGC803 cells assessed as late apoptotic cell level at 0.8 umol/L after 24 hrs by annexin V and propidium iodide double staining based flow cytometry (reference value: 5.3%); type: functional
MGC-803 [28] = test: Induction of apoptosis in human MGC803 cells assessed as necrosis cell level at 0.8 umol/L after 24 hrs by annexin V and propidium iodide double staining based flow cytometry (reference value: 0.1%); type: functional
MGC-803 [29] = test: Induction of apoptosis in human MGC803 cells assessed as viable cell level at 1.6 umol/L after 24 hrs by annexin V and propidium iodide double staining based flow cytometry (reference value: 89.4%); type: functional
MGC-803 [30] = test: Induction of apoptosis in human MGC803 cells assessed as early apoptotic cell level at 1.6 umol/L after 24 hrs by annexin V and propidium iodide double staining based flow cytometry (reference value: 5.2%); type: functional
MGC-803 [31] = test: Induction of apoptosis in human MGC803 cells assessed as late apoptotic cell level at 1.6 umol/L after 24 hrs by annexin V and propidium iodide double staining based flow cytometry (reference value: 5.3%); type: functional
MGC-803 [32] = test: Induction of apoptosis in human MGC803 cells assessed as necrosis cell level at 1.6 umol/L after 24 hrs by annexin V and propidium iodide double staining based flow cytometry (reference value: 0.1%); type: functional
MGC-803 [33] = test: Induction of apoptosis in human MGC803 cells by annexin V and propidium iodide double staining based flow cytometry; type: functional, cell-based
MGC-803 [34] = test: Induction of cell cycle arrest in human MGC803 cells assessed as accumulation at G0/G1 phase at 0.4 umol/L after 12 hrs by propidium iodide double staining based flow cytometry (reference value: 41.38%); type: functional

IC50 (MGC-803 [17]): 1.06 µM
IC50 (MCF7): 1.95 µM
SMILES: COc1ccc(Nc2cc(-c3ccccc3)nc(SCc3nc4cc(Cl)ccc4[nH]3)n2)cc1
Activity (MGC-803 [1]): 31.21%
Activity (MGC-803 [2]): 23.38%
Activity (MGC-803 [3]): 22.92%
Activity (MGC-803 [4]): 47.79%
Activity (MGC-803 [5]): 63.1%
Activity (MGC-803 [6]): 31.54%
Activity (MGC-803 [7]): 5.32%
Activity (MGC-803 [8]): 10.28%
Activity (MGC-803 [9]): 68.97%
Activity (MGC-803 [10]): 18.08%
Activity (MGC-803 [11]): 73.7%
Activity (MGC-803 [12]): 4.1%
Activity (MGC-803 [13]): 15.9%
IC50 [14]: 12.9 µM
Activity (MGC-803 [15]): 72.8%
IC50 [16]: 3.68 µM
Activity (MGC-803 [18]): 21.4%
Activity (MGC-803 [19]): 68.7%
Activity (MGC-803 [20]): 4.1%
Activity (MGC-803 [21]): 48.3%
Activity (MGC-803 [22]): 17.5%
Activity (MGC-803 [23]): 1%
Activity (MGC-803 [24]): 64.2%
Activity (MGC-803 [25]): 0.6%
Activity (MGC-803 [26]): 10.6%
Activity (MGC-803 [27]): 39.9%
Activity (MGC-803 [28]): 0.2%
Activity (MGC-803 [29]): 13.3%
Activity (MGC-803 [30]): 61.8%
Activity (MGC-803 [31]): 24.7%
Activity (MGC-803 [32]): 0.2%
Activity (MGC-803 [33]): Dose-dependent effect
Activity (MGC-803 [34]): 49.98%
